Source: patent publication US20260356841A1, “HETEROCYCLIC PYRIDINONE COMPOUNDS AS TRIGGERING RECEPTOR EXPRESSED ON MYELOID CELLS 2 AGONISTS AND METHODS OF USE” (Vigil Neuroscience, Inc., priority 2023, published 2026)

biological target: T1, human TREM2 (Homo sapiens, UniProt Q9NZC2); assay: TREM2 agonist potency by cellular phosphorylation of Spleen Tyrosine Kinase (Syk), AlphaLisa, HEK293T-hTREM2 cells; type: cell-based; conditions: hTREM2 EC50 Data (HEK293 Cells); Syk phosphorylation, AlphaLisa; read-out: hTREM2 EC50
T1 construct: expressed in transfected cells; host or cells: HEK293T (HEK293T-hTREM2 cells)
Method: Measurement of TREM2 agonist potency was done using a HEK cell line expressing human TREM2 and DAP12 (HEK293T-hTREM2 cells). Binding of small molecules to, and activation of, TREM2 increases the phosphorylation of Syk. The resultant levels of Syk phosphorylation are measured using a commercial AlphaLisa reagent kit. To perform the assay, HEK-hTREM2 cells were plated at 14,000 cells per well in a 384 well plate, in 25 μL of complete growth media and incubated at 37° C., 5% CO2 for 20-24 hours.
Prior to the assay, test compounds were diluted in the 384 well plates in assay buffer and allowed to equilibrate for 30 minutes. Growth media was removed from cell plates by inversion on blotting paper, and 25 μL of test articles in assay buffer was added to cells. Cells were incubated for 45 minutes at room temperature. After 45 minutes, assay buffer was removed and 10 μL of lysis buffer was added. Plates were shaken for 20 minutes at 350 RPM at room temperature. After complete lysis, AlphaLisa reagents were added to the lysate, and fluorescence intensity was measured using a Perkin Elmer Envision plate reader. Intensities were used to generate a standard curve, and % activation was calculated. Curve fitting was performed using Prism v9 software, log (agonist) vs response-variable slope (four parameters), and EC50s were calculated from the curve fit.
The results presented in Table B have been generated with the in vitro assay described above. This assay may be used to test any of the compounds described herein to assess and characterize a compound's ability to act as an agonist of TREM2.

T1 sequence (Q9NZC2 19-230): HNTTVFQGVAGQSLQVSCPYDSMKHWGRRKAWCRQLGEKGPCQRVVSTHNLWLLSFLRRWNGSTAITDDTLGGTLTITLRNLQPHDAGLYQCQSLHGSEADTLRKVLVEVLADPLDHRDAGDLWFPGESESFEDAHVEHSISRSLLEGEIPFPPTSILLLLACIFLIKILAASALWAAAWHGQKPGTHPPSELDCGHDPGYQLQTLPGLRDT
T1 sequence (O43914 22-113 partner): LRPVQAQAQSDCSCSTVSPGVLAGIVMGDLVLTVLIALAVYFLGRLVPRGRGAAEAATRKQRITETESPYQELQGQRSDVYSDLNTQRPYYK

| SMILES | EC50 [µM] |
| --- | --- |
| Cc1nc2nc(N3C[C@@H](C)O[C@@H](c4ccc(=O)n(C)c4)C3)nc(C34CC(C#N)(C3)C4)c2nc1C [Example 205, 3-[6,7-dimethyl-2-[(2R,6S)-2-methyl-6-(1-methyl-6-oxo-3-pyridyl)morpholin-4-yl]pteridin-4-yl]bicyclo[1.1.1]pentane-1-carbonitrile] | < 0.1 |
| Cc1nc2nc([C@@H]3CCO[C@@H](c4ccc(=O)n(C)c4)C3)nc(-c3ccc(Cl)cc3F)c2nc1C (racemic) [Example 9, 1-methyl-5-[rac-(2R,4R)-4-[4-(4-chloro-2-fluoro-phenyl)-6,7-dimethyl-pteridin-2-yl]tetrahydropyran-2-yl]pyridin-2-one] | < 0.1 |
| CNn1cc([C@H]2CN(c3nc(-c4ccc(F)cc4F)c4sc(N(C)C)nc4n3)C[C@@H](C)O2)ccc1=O [Example 175, 5-[(2S,6R)-4-[7-(2,4-difluorophenyl)-2-(dimethylamino)thiazolo[4,5-d]pyrimidin-5-yl]-6-methyl-morpholin-2-yl]-1-(methylamino)pyridin-2-one] | < 0.1 |
| C[C@@H]1CN(c2nc(-c3ccc(F)cc3F)c3sc(N(C)C)nc3n2)C[C@H](c2ccc(=O)n(C)c2)O1 [Example 176, 5-[(2S,6R)-4-[7-(2,4-difluorophenyl)-2-(dimethylamino)thiazolo[4,5-d]pyrimidin-5-yl]-6-methyl-morpholin-2-yl]-1-methyl-pyridin-2-one] | < 0.1 |
| Cc1nc2nc([C@H]3CCO[C@@H](c4ccc(=O)n(C)c4)C3)nc(-c3ccc(C(F)(F)F)c(F)c3F)c2nc1C [Example 18, 5-[(2R,4S)-4-[4-[2,3-difluoro-4-(trifluoromethyl)-phenyl]-6,7-dimethyl-pteridin-2-yl]tetrahydropyran-2-yl]-1-methyl-pyridin-2-one] | 0.1 to 0.5 |
| Cc1nc2nc(N3CCC(F)(F)C(c4ccc(=O)[nH]c4)C3)nc(-c3ccc(F)cc3F)c2nc1C (stereo not shown) [Example 189, 5-[1-[4-(2,4-difluorophenyl)-6,7-dimethyl-pteridin-2-yl]-4,4-difluoro-3-piperidyl]-1H-pyridin-2-one] | < 0.1 |
| Cc1nc2nc(N3CCC(F)(F)C(c4ccc(=O)n(C)c4)C3)nc(-c3ccc(F)cc3F)c2nc1C (stereo not shown) [Example 190, 5-[1-[4-(2,4-difluorophenyl)-6,7-dimethyl-pteridin-2-yl]-4,4-difluoro-3-piperidyl]-1-methyl-pyridin-2-one] | < 0.1 |
| Cc1nc2nc([C@H]3CCO[C@@H](c4ccc(=O)n(C)c4)C3)nc(-c3ccc(F)cc3F)c2nc1C [Example 1, 1-methyl-5-[(2R,4S)-4-[4-(2,4-difluorophenyl)-6,7-dimethyl-pteridin-2-yl]tetrahydropyran-2-yl]pyridin-2-one] | < 0.1 |
| CN1Cc2c(cc([C@H]3CCO[C@@H](c4ccc(=O)n(C)c4)C3)nc2-c2ccc(C(F)(F)F)cc2F)C1=O (single isomer, unassigned) [Example 165] | 0.1 to 0.5 |
| Cc1nc2nc([C@H]3CCO[C@@H](c4ccc(=O)n(C)c4)C3)nc(-c3ccc(C(F)(F)F)cc3F)c2nc1C(F)F [Example 126, 5-[(2R,4S)-4-[6-(difluoromethyl)-4-[2-fluoro-4-(trifluoromethyl)phenyl]-7-methyl-pteridin-2-yl]tetrahydropyran-2-yl]-1-methyl-pyridin-2-one] | 0.1 to 0.5 |
| COc1nc2c(-c3ccc(C(F)(F)F)cc3F)nc([C@H]3CCO[C@@H](c4ccc(=O)n(C)c4)C3)nc2nc1C [Example 129, 1-methyl-5-[(2R,4S)-4-[4-[2-fluoro-4-(trifluoromethyl)phenyl]-6-methoxy-7-methyl-pteridin-2-yl]tetrahydropyran-2-yl]pyridin-2-one] | < 0.1 |

Next, values leading:

| EC50 [µM] | SMILES |
| --- | --- |
| < 0.1 | Cc1nc2nc([C@@H]3CCO[C@H](c4ccc(=O)n(C)c4)C3)nc(C34CC(C(F)(F)F)(C3)C4)c2nc1C1CC1 [Example 159, 1-methyl-5-[(2S,4R)-4-[6-cyclopropyl-7-methyl-4-[3-(trifluoro-methyl)-1-bicyclo[1.1.1]pentanyl]pteridin-2-yl]tetrahydropyran-2-yl]pyridin-2-one] |
| < 0.1 | Cc1nc2nc([C@H]3CCO[C@@H](c4ccc(=O)n(N5CCCC5)c4)C3)nc(C34CC(C(F)(F)F)(C3)C4)c2nc1C [Example 209, 5-[(2R,4S)-4-[6,7-dimethyl-4-[3-(trifluoromethyl)-1-bicyclo[1.1.1]pentanyl]pteridin-2-yl]tetrahydropyran-2-yl]-1-pyrrolidin-1-yl-pyridin-2-one] |
| < 0.1 | Cc1nc2nc([C@H]3CCO[C@@H](c4ccc(=O)n(C)c4)C3)nc(C34CC(CC(F)(F)F)(C3)C4)c2nc1C [Example 54, 5-[(2R,4S)-4-[6,7-dimethyl-4-[3-(2,2,2-trifluoroethyl)-1-bicyclo[1.1.1]pentanyl]pteridin-2-yl]tetrahydro-2H-pyran-2-yl]-1-methyl-pyridin-2(1H)-one] |
| < 0.1 | Cc1nc2nc([C@H]3CCO[C@@H](c4ccc(=O)n(C)c4)C3)nc(C34CC(C(F)(F)F)(C3)C4)c2nc1C [Example 25, 5-((2R,4S)-4-(6,7-dimethyl-4-(3-(trifluoromethyl)bicyclo[1.1.1]pentan-1-yl)pteridin-2-yl)tetrahydro-2H-pyran-2-yl)-1-methylpyridin-2(1H)-one] |
| < 0.1 | Cc1nc2nc([C@H]3CCO[C@@H](c4ccc(=O)n(NCC(F)F)c4)C3)nc(C34CC(C(F)(F)F)(C3)C4)c2nc1C [Example 214, 1-((2,2-difluoroethyl)amino)-5-((2R,4S)-4-(6,7-dimethyl-4-(3-(trifluoromethyl)bicyclo[1.1.1]pentan-1-yl)pteridin-2-yl)tetrahydro-2H-pyran-2-yl)pyridin-2(1H)-one] |
| < 0.1 | [2H]C([2H])([2H])n1cc([C@H]2C[C@@H](c3nc(C45CC(C(F)(F)F)(C4)C5)c4nc(OC)c(C)nc4n3)CCO2)ccc1=O [Example 147, 5-((2R,4S)-4-(6-methoxy-7-methyl-4-(3-(trifluoromethyl)-bicyclo[1.1.1]pentan-1-yl)pteridin-2-yl)tetrahydro-2H-pyran-2-yl)-1-(methyl-d3)pyridin-2(1H)-one] |
| < 0.1 | Cc1nc2nc([C@H]3CCO[C@@H](c4ccc(=O)n(-c5cscn5)c4)C3)nc(C34CC(C(F)(F)F)(C3)C4)c2nc1C [Example 110, 5-((2R,4S)-4-(6,7-dimethyl-4-(3-(trifluoromethyl)bicyclo[1.1.1]pentan-1-yl)pteridin-2-yl)tetrahydro-2H-pyran-2-yl)-1-(thiazol-4-yl)pyridin-2(1H)-one] |
| < 0.1 | Cc1nc2nc([C@H]3CCO[C@@H](c4ccc(=O)n(C5CCC5)c4)C3)nc(C34CC(C(F)(F)F)(C3)C4)c2nc1C [Example 94, 1-cyclobutyl-5-[(2R,4S)-4-[6,7-dimethyl-4-[3-(trifluoromethyl)-1 bicyclo[1.1.1]pentanyl]pteridin-2-yl]tetrahydropyran-2-yl]pyridin-2-one] |
| < 0.1 | Cc1nc2nc([C@@H]3CCO[C@H](c4ccc(=O)n(C)c4)C3)cc(C34CC(C(F)(F)F)(C3)C4)c2nc1C [Example 168, 1-methyl-5-[(2S,4R)-4-[2,3-dimethyl-8-[3-(trifluoromethyl)-1-bicyclo[1.1.1]pentanyl]pyrido[2,3-b]pyrazin-6-yl]tetrahydropyran-2-yl]pyridin-2-one] |
| < 0.1 | Cc1nc2nc([C@H]3CCO[C@@H](c4ccc(=O)n(C)c4)C3)nc(C34CC(C(F)(F)F)(C3)C4)c2nc1C1CC1 [Example 158, 1-methyl-5-[(2R,4S)-4-[6-cyclopropyl-7-methyl-4-[3-(trifluoro-methyl)-1-bicyclo[1.1.1]pentanyl]pteridin-2-yl]tetrahydropyran-2-yl]pyridin-2-one] |
| < 0.1 | Cc1nc(-n2cc([C@H]3C[C@@H](c4nc(C56CC(C(F)(F)F)(C5)C6)c5nc(C)c(C)nc5n4)CCO3)ccc2=O)cs1 [Example 114, 5-((2R,4S)-4-(6,7-dimethyl-4-(3-(trifluoro-methyl)bicyclo[1.1.1]pentan-1-yl)pteridin-2-yl)tetrahydro-2H-pyran-2-yl)-1-(2-methyl-thiazol-4-yl)pyridin-2(1H)-one] |
| 0.1 to 0.5 | CN(C)c1nc2nc([C@H]3CCO[C@@H](c4ccc(=O)n(C)c4)C3)nc(C34CC(C(F)(F)F)(C3)C4)c2n1C [Example 202, 5-((2R,4S)-4-(8-(dimethylamino)-7-methyl-6-(3-(trifluoromethyl)bicyclo[1.1.1]pentan-1-yl)-7H-purin-2-yl)tetrahydro-2H-pyran-2-yl)-1-methylpyridin-2 (1H)-one] |
| < 0.1 | Cc1nc2nc([C@H]3CCO[C@@H](c4ccc(=O)n(CC5(C)CC5)c4)C3)nc(C34CC(C(F)(F)F)(C3)C4)c2nc1C [Example 100, 5-[(2R,4S)-4-[6,7-dimethyl-4-[3-(trifluoromethyl)-1-bicyclo[1.1.1]pentanyl]pteridin-2-yl]tetrahydropyran-2-yl]-1-[(1-methylcyclopropyl)methyl]pyridin-2-one] |
| 0.1 to 0.5 | Cc1nc2c(C34CC(C(F)(F)F)(C3)C4)nc([C@H]3CCO[C@@H](c4ccc(=O)n(N)c4)C3)nc2c(=O)n1C (racemic) [Example 218, 2,3-dimethyl-6-[rac-(2R,4S)-2-(1-amino-6-oxo-3-pyridyl)tetrahydropyran-4-yl]-8-[3-(trifluoromethyl)-1-bicyclo[1.1.1]pentanyl]pyrimido[5,4-d]pyrimidin-4-one] |
